Results reported in patent US10745416B2, “Macrocyclic compounds for treating disease” (Turning Point Therapeutics, Inc., priority 2017, dated 2020).

Tests used:
Assay in all cases: Cell proliferation assay (CellTiter-Glo, 72 hours)
[1] = target: T1, BaF3 KIF5B-RET_V804M (Homo sapiens, UniProt P07949, V804M, cells depend on it); assay type: cell-based; conditions: anti-cell proliferation, read-out: BaF3 KIF5B-RET_V804M IC50
T1 construct: fused on or other part: P33176 (Kinesin-1 heavy chain)
Summary of the method: (§1)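 Ba/F3 cells were lentivirally transduced with wild-type or mutant KIF5B-RET, puromycin-selected and grown without IL-3. CellTiter-Glo ATP luminescence read viability, and IC50 values came from curve fitting.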

[2] = target: T2, BaF3 KIF5B-RET (Homo sapiens, UniProt P07949); assay type: cell-based; conditions: anti-cell proliferation, read-out: BaF3 KIF5B-RET IC50
T2 construct: fused on or other part: P33176 (Kinesin-1 heavy chain)
Summary of the method: as §1

[3] = target: T3, BaF3 EML4-ALK (Homo sapiens, UniProt Q9UM73); assay type: cell-based; conditions: anti-cell proliferation
T3 construct: The EML4-ALK gene (variant 1) was synthesized at GenScript and cloned into pCDH-CMV-MCS-EF1-Puro plasmid (System Biosciences, Inc); fused on or other part: Q9HC35 (Echinoderm microtubule-associated protein-like 4)
Summary of the method: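 Ba/F3 cells were stably transduced with wild-type EML4-ALK variant 1 and selected for IL-3-independent growth. Cells were seeded for 24 h, then exposed to compounds for 72 h at 37 °C, 5% CO2. Viability was read as ATP luminescence and IC50 values were fitted.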

[4] = system: KM12 cell (TPM3-TRKA); assay type: cell-based, human; conditions: Homo sapiens, KM12, anti-cell proliferation
Summary of the method: (§2)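 Cells used were KG-1 (AML), TT medullary thyroid carcinoma ([…]) and KM12 colon (TPM3-TRKA). Viability was read by CellTiter-Glo ATP luminescence, and IC50 derived by curve fitting.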

[5] = system: KG-1; assay type: cell-based, human; conditions: Homo sapiens, KG-1, anti-cell proliferation
Summary of the method: as §2

[6] = system: TT cell (RET C634W); assay type: cell-based; conditions: Homo sapiens, anti-cell proliferation
Procedure: Human medulla thyroid carcinoma cell line TT (containing RET […] mutation) and acute myelogenous cell line KG-1 were purchased from ATCC. Human colon cancer cell line KMI2 (containing TPM3-TRKA) was obtained from NCI.
Two thousand cells per well were seeded in 384 well white plate for 24 hrs, and then treated with compounds for 72 hours (37° C., 5% CO2). Cell proliferation was measured using CellTiter-Glo luciferase-based ATP detection assay (Promega) following the manufactures's protocol. IC50 determinations were performed using GraphPad Prism software (GraphPad, Inc., San Diego, Calif.).

[7] = target: T4, BaF3 KIF5B-RET_G810R (Homo sapiens, UniProt P07949, G810R, cells depend on it); assay type: cell-based; conditions: anti-cell proliferation, read-out: BaF3 KIF5B-RET_G810R IC50
T4 construct: fused on or other part: P33176 (Kinesin-1 heavy chain)
T4 sequence (P07949 whole entry G810R, the tested form may be a part): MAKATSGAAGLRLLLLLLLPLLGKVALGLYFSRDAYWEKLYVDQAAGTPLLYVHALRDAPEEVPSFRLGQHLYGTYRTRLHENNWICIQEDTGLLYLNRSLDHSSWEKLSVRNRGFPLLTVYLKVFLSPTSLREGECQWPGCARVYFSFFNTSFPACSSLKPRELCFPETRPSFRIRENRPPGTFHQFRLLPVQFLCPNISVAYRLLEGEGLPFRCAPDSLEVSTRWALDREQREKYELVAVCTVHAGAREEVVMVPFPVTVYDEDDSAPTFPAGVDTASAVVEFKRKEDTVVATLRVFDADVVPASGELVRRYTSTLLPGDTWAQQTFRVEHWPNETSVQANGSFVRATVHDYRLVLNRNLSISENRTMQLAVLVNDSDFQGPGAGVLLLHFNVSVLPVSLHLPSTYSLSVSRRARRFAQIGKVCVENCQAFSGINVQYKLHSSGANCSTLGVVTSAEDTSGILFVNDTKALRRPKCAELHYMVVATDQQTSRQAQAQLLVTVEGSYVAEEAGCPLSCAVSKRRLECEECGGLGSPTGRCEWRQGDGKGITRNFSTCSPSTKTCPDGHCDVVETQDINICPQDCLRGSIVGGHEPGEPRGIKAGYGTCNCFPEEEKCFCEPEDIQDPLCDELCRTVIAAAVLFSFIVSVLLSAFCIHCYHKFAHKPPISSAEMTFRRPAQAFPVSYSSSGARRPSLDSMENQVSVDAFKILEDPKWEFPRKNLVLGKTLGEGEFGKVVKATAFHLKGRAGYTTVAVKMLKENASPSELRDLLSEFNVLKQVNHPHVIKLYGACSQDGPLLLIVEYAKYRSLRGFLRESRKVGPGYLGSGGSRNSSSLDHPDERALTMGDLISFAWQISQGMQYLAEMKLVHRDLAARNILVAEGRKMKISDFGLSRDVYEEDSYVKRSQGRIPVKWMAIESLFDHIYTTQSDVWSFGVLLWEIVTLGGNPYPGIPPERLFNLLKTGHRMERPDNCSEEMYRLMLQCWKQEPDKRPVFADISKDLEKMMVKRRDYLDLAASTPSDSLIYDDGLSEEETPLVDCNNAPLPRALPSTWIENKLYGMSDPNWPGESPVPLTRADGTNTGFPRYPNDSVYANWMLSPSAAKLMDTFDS

T2 sequence (P07949 whole entry, change not shown, the tested form may be a part): as the sequence (P07949 whole entry G810R, the tested form may be a part) above, with R810G counted along it
T3 sequence (Q9UM73 whole entry, change not shown, the tested form may be a part): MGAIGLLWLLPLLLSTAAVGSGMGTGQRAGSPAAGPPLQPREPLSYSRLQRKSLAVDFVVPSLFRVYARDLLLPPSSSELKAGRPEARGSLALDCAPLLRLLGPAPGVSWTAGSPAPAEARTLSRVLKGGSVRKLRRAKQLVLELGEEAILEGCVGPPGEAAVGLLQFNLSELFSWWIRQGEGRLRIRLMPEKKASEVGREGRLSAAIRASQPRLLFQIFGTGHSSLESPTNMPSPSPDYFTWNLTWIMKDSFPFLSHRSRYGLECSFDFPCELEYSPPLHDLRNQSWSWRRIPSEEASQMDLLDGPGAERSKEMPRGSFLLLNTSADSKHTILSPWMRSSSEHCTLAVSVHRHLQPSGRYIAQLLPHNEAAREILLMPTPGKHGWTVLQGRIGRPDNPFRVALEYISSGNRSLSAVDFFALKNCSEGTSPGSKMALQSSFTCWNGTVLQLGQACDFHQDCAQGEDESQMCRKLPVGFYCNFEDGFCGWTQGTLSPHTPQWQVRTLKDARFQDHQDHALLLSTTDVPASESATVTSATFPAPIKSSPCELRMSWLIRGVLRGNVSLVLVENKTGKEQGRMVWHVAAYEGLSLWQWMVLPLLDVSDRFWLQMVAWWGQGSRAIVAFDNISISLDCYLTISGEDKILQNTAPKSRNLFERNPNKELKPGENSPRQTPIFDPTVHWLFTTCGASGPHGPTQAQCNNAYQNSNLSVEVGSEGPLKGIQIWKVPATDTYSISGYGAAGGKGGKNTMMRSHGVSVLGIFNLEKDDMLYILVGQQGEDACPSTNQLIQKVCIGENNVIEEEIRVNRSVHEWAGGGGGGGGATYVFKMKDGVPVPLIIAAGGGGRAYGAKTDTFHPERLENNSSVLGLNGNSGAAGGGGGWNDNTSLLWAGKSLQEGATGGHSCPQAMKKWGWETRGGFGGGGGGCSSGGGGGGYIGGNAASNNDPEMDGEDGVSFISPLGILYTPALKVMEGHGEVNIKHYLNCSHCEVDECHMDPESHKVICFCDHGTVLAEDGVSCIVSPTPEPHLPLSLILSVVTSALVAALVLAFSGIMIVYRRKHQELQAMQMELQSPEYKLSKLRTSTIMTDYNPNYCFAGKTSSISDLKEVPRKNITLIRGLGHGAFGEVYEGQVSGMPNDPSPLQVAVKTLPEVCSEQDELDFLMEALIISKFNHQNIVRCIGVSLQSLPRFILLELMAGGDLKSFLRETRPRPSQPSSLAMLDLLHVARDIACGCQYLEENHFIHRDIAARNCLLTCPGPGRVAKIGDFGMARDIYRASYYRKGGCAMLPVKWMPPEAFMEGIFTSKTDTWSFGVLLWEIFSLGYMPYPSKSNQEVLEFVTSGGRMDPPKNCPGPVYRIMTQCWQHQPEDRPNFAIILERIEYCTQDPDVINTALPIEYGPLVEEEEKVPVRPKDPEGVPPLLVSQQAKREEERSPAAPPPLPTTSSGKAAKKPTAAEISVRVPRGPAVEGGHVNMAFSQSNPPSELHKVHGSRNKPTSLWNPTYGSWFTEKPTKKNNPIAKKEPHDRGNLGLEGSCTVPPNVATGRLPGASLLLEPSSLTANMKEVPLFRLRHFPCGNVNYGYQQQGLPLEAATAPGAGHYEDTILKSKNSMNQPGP
T1 sequence (P07949 whole entry V804M, the tested form may be a part): as the sequence (P07949 whole entry G810R, the tested form may be a part) above, with V804M, R810G counted along it

Compound | GI50 [1] [nM] | GI50 [2] [nM] | GI50 [3] [nM] | IC50 [4] [nM] | IC50 [5] [nM] | IC50 [6] [nM] | GI50 [7] [nM]
C[C@H]1CNC(=O)c2cnn3cc4c(nc23)N(Cc2cc(F)ccc2O1)[C@@H]1CCC[C@H]1O4 [Compound 2] | > 10000 | 1450 | > 10000 | 255 | 5000 | 1780 | 
C[C@H]1CNC(=O)c2cnn3cc4c(nc23)N(Cc2cc(F)cc(F)c2O1)[C@@H]1CCC[C@@H]1O4 [Compound 3, (3aR,11S,20aS)-7,9-difluoro-11-methyl-2,3,3a,12,13,20a-hexahydro-1H,5H-17-19-(metheno)cyclopenta[5,6][1,4] oxazino[3,4-i]pyrazolo[4,3-f][1,4,8,10]benzoxatriacyclotridecin-14(11H)-one] | 1700 | < 0.2 | 1500 | 4.2 | 505 | 7.9 | 
C[C@H]1CNC(=O)c2cnn3cc4c(nc23)N(Cc2cc(F)ccc2O1)[C@@H]1COC[C@@H]1O4 [Compound 4, (3aR,11S,20aS)-7-fluoro-11-methyl-1,3,3a,12,13,20a-hexahydro-5H-17-19-(metheno)furo[3′,4′:5,6][1,4] oxazino[3,4-i]pyrazolo[4,3-f][1,4,8,10]benzoxatriacyclotridecin-14(11H)-one] | 5000 | 184 | 3290 | 22 | 5000 | 462 | 
C[C@H]1CCNC(=O)c2cnn3cc4c(nc23)N(Cc2cc(F)cnc2O1)[C@@H]1CCC[C@@H]1O4 [Compound 15, (3aR,11S,21aS)-7-fluoro-11-methyl-2,3,3a,12,13,14,21a-octahydro-1H,5H, 15H-18,20-(metheno)cyclopenta[5,6] [1,4]oxazino[4,3-e]pyrazolo[3,4-h]pyrido [2,3-b][1,5,7,11]oxatriazacyclotetradecin-15-one] | 1240 | 1.1 | 364 | 5.1 | 5.2 |  | 8.7
C[C@H]1CCOc2ncc(F)cc2CN2c3nc4c(cnn4cc3O[C@H]3CCC[C@H]32)C(=O)N1 [Compound 28, (3aR,13S,21aS)-7-fluoro-13-methyl-2,3,3a,11,12,13,14,21a-octahydro-1H,5H,15H-18,20-(metheno)cyclopenta[5,6][1,4]oxazino[4,3-e]pyrazolo[3,4-h]pyrido[2,3-b][1,5,7,11]oxatriazacyclotetradecin-15-one] | 2000 | 1.5 | 803 | 11.8 | 22.8 |  | 72
O=C1NC2(CC2)COc2ncc(F)cc2CN2c3nc4c1cnn4cc3O[C@H]1CCC[C@H]12 [Compound 18, (3a′R,20a′S)-7′-fluoro-1′H,2′H,3′H,3a′H, 5′H,11′H,13′H,14′H,20a′H-spiro[cyclopropane-1,12′-[10,20]dioxa[4,9,13,16,17,18][hexaaza [17,19](metheno)cyclopenta[5,6][1,4]oxazino[3,4-i]pyrazolo[4,3-f]pyrido [3,2-l][1,4,8,10]oxatriazacyclotridecin]-14′-one] | 1530 | 7.1 | 77.2 | 11.3 | 16.9 |  | 24.4
